Our source for the IC50 values is US8604065B2, “Pyridyl cyanoguanidine derivatives” (priority 2010, dated 2013).

Usually IC50 stands for the point on the concentration scale where inhibition reaches its midpoint.

Common to all, as to format: cell-based
In experiment [1] the test system is Human pancreatic cancer AsPC-1. Briefly: growth inhibition on AsPC-1 in vitro (MTT). Particulars: ASPC1, Aspc-1 cells, 72 h. How it is done: (§1) Human pancreatic cancer AsPC-1; human acute lymphocytic leukemia taxol-resistant cell strain CCRF-CEM/T; human adenocarcinoma of lung NCI-H1975; human pharyngeal squamous cell carcinoma Fadu; human B lymphoma BA25; human B lymphoma BA91; human B lymphoma BA127; human stomach cancer NCI-N87; human non-small cell lung cancer A549; human liver cancer SK-Hep-1; human lung cancer NCI-H460; human prostate cancer PC-3.
(§2) The following cells were cultured under the following conditions, respectively:
(§3) 37° C., 5% CO2, saturated humidity.
(§4) The cells were cultured until confluence, digested with a pancreatic enzyme, and prepared into a single cell suspension in a complete medium.
(§5) The cells were seeded in a 96-well microplate at a suitable concentration (AsPC-1: 8000 cells/well; NCI-H1975: 5000 cells/well; Fadu: 6000 cells/well; NCI-N87: 15000 cells/well), cultured overnight to render them adherent to the bottom.
(§6) A 2 mM stock solution was prepared by dissolving test compounds in DMSO, diluted with a base medium (without serum) to form a 20 μM or 2 μM 10× working solution which was diluted using a gradient of 1/3. During dilution, the concentration of DMSO was kept consistent. There were 8 dose groups in total. 20 μl of 10× compound working solution was added to the experimental well until the final volume of each well was 200 μl and the concentration of DMSO was 1‰. Meanwhile, a solvent control group (PC) without compounds (PC) and a solvent control group without cells and compounds (NC) were prepared. The cells were further cultured for 72 h.
(§7) Subsequently, the activity of cells was measured with a microculture tetrozolium (MTT method). Specifically, the medium in well was sucked out, a base medium containing 0.5 mg/ml MTT was added in an amount of 100 μl/well, and then the cell was further cultured for 3 h. The medium containing MTT was once again sucked out, 100 μl/well of DMSO was added to dissolve MTT crystal, and OD value at 490 nm was measured with an ELISA analyzer.
(§8) Inhibition rate of a compound was calculated as follows: Inhibition rate=[1−(OD value of administration group−OD value of NC)/(OD value of PC−OD value of NC)]×100%
(§9) Inhibition rates were then plotted versus the logarithm of compound concentrations, and fitted with Logistic 4 parameter equation. The compound concentration corresponding to 50% inhibition rate in the curve was IC50 value.

The subject of experiment [2] is human acute lymphocytic leukemia taxol-resistant cell strain CCRF-CEM/T. Briefly: growth inhibition on CCRF-CEM/T in vitro (MTT). To be noted: CCRF-CEM-T cells, 72 h. The protocol:
as §1
(§10) The cells were cultured under the following conditions:
(§11) complete medium: 90% RPMI1640, 10% FBS; 37° C., 5% CO2, saturated humidity.
(§12) After cultured to the end of the logarithmic growth phase, the cells were diluted with the complete medium to the required concentration.
(§13) The cells were seeded in a 96-well microplate at a suitable concentration (CCRF-CEM/T: 20000 cells/well; BA25: 20000 cells/well; BA91: 60000 cells/well; BA127: 60000 cells/well).
as §6, with “total. 12” for “total. 20”, “was 120” for “was 200”, “group” for “group (PC)”
(§14) Subsequently, the activity of cells was measured with a microculture tetrozolium (MTT method). Specifically, 30 μl/well of PBS containing 2.5 mg/ml MTT was added, and then the cells were cultured for another 3 h. 100 μl/well of triple lysis buffer (10% SDS, 5% isobutanol, 0.012 M HCl) was added, and the mixture was kept at room temperature to dissolve MTT crystal. OD value at 570 nm was measured with an ELISA analyzer.
(§15) Inhibition rate of a compound was calculated as follows:
(§16) Inhibition rate=[1−(OD value of administration group−OD value of NC)/(OD value of PC−OD value of NC)]×100%
as §9

For experiment [3], the system named is human lung cancer NCI-H460. Briefly: growth inhibition on NCI-H460 in vitro. Particulars: NCI-H460 cells, read-out: growth inhibition effects IC50 (nM) NCI-H460.
Text: as §1

The subject of experiment [4] is human pharyngeal squamous cell carcinoma Fadu. Put plainly: growth inhibition on FaDu in vitro (MTT). Particulars: FaDu cells, 72 h. How it is done:
as §1, §2, §3, §4, §5, §6, §7, §8, §9

Experiment [5] deals with human non-small cell lung cancer A549. Put plainly: growth inhibition on A549 in vitro. Particulars: A549 cells, read-out: growth inhibition effects IC50 (nM) A549.
Text: as §1

In experiment [6] the test system is human adenocarcinoma of lung NCI-H1975. Put plainly: growth inhibition on NCI-H1975 in vitro (MTT). To be noted: NCI-H1975 cells, 72 h, read-out: growth inhibition effects IC50 (nM) NCI-H1975. The protocol:
as §1, §2, §3, §4, §5, §6
(§17) Subsequently, the activity of cells was measured with a microculture tetrozolium (MTT method). […] The medium containing MTT was once again sucked out, 100 μl/well of DMSO was added to dissolve MTT crystal, and OD value at 490 nm was measured with an ELISA analyzer.
(§18) Inhibition rate of a compound was calculated as follows: Inhibition rate=[1−(OD value of administration group−OD value of NC)/(OD value of PC−OD value of NC)]×100% […]

For experiment [7], the system named is human prostate cancer PC-3. Put plainly: growth inhibition on PC-3 in vitro. To be noted: PC-3 cells, read-out: growth inhibition effects IC50 (nM) PC-3.
Text: as §1

Experiment [8] relates to human liver cancer SK-Hep-1. Put plainly: growth inhibition on SK-Hep-1 in vitro. Particulars: SK-HEP1, SK-Hep-1 cells, read-out: growth inhibition effects IC50 (nM) SK-Hep-1.
Text: as §1

The test system of experiment [9] is human stomach cancer NCI-N87. Put plainly: growth inhibition on NCI-N87 in vitro (MTT). To be noted: NCI-N87 cells, 72 h, read-out: growth inhibition effects IC50 (nM) NCI-N87. How it is done:
as §1, §2, §3, §4, §5, §6, §17, §18

Experiment [10] relates to human B lymphoma BA127. Briefly: growth inhibition on BA127 in vitro (MTT). To be noted: BA127 cells, 72 h. The protocol: as §1, §10, §11, §12, §13
as §6, with “total. 12” for “total. 20”, “was 120” for “was 200”, “group” for “group (PC)”
as §14, §15, §16, §9

Experiment [11] concerns human B lymphoma BA91. Put plainly: growth inhibition on BA91 in vitro (MTT). Particulars: BA91 cells, 72 h. The protocol:
as §1, §10, §11, §12, §13
as §6, with “total. 12” for “total. 20”, “was 120” for “was 200”, “group” for “group (PC)”
as §14, §15, §16, §9

Experiment [12] relates to human B lymphoma BA25. Put plainly: growth inhibition on BA25 in vitro (MTT). To be noted: BA25 cells, 72 h. How it is done:
as §1, §10, §11, §12, §13
as §6, with “total. 12” for “total. 20”, “was 120” for “was 200”, “group” for “group (PC)”
as §14, §15, §16, §9

For `COc1ccccc1OCCCCCN/C(=N\C#N)Nc1ccncc1` [Control 1, N-cyano-N′-(5-(o-methoxyphenoxy)pentyl)-N″-(4-pyridyl) guanidine, reference compound], the IC50 in [1] is 135 nM; in [2] it was 113 nM.
Turning to `N#C/N=C(\NCCCCCCOc1ccc(Cl)cc1)Nc1ccncc1` [Control 2, N-cyano-N′-(6-(4-chlorophenoxy)hexyl)-N″-(4-pyridyl) guanidine], the concentration for half-maximal inhibition (IC50) in experiment [3] was determined as 83 nM; in experiment [4], 11.7 nM; in experiment [5], 22 nM; in experiment [6] it was 54 nM; in experiment [1], 19 nM; in experiment [2] it was 22 nM. For the same molecule, the values for the IC50 in experiment [7], in [8] and in [9] were 2.5 nM, 16 nM and 14 nM, respectively.
As for `N#C/N=C(\NCCCCCCOc1ccccc1Cl)Nc1ccncc1` [Control 3, N-cyano-N′-(6-(2-chlorophenoxy)hexyl)-N″-(4-pyridyl) guanidine, reference compound], the IC50 in [1] came to 7.2 nM; in [2], 6.3 nM.
Consider `COc1ccccc1OCCCCCCN/C(=N\C#N)Nc1ccncc1` [Control 4, N-cyano-N′-(6-(2-methoxyphenoxy)hexyl)-N″-(4-pyridyl) guanidine], for which the IC50 in [3] worked out at 38 nM; in [5] it was 9.9 nM; in experiment [6], 15.5 nM; in experiment [1] it was 7.3 nM; in experiment [2], 6.9 nM; in experiment [7] it was 2.4 nM. Further, the IC50 in experiment [9] is 6.6 nM.
With `N#C/N=C(\NCCCCCCOc1cc(Cl)ccc1OC(F)F)Nc1ccncc1` [Example 1, N-cyano-N′-(6-(2-difluoromethoxy-5-chlorophenoxy)hexyl)-N″-(4-pyridyl) guanidine], the IC50 in [4] is 1.2 nM; in experiment [10], 1.4 nM; in experiment [2], 2.2 nM; in experiment [11], 2 nM.
Consider `N#C/N=C(\NCCCCCCOc1ccccc1OC(F)(F)F)Nc1cccnc1` [Example 2, N-cyano-N′-(6-(o-trifluoromethoxyphenoxy)hexyl)-N″-(3-pyridyl) guanidine], for which the IC50 in experiment [12] worked out at 4.4 nM; in experiment [10] it was 4.3 nM; in [11] it was 2.7 nM.
The molecule `N#C/N=C(\NCCCCCCOc1ccc(OC(F)(F)F)cc1)Nc1ccncc1` [Example 4, N-cyano-N′-(6-(p-trifluoromethoxyphenoxy)hexyl)-N″-(4-pyridyl) guanidine] registered an IC50 in experiment [12] of 12 nM.
Turning to `N#C/N=C(\NCCCCCOc1ccccc1OC(F)(F)F)Nc1ccncc1` [Example 5, N-cyano-N′-(5-(o-trifluoromethoxyphenoxy)pentyl)-N″-(4-pyridyl) guanidine], the IC50 in [12] turned out to be 7.3 nM; in experiment [10] it was 6.1 nM; in [11], 6.9 nM.
The matching figures for `N#C/N=C(\NCCCCCCCCOc1ccccc1OC(F)(F)F)Nc1ccncc1` [Example 6, N-cyano-N′-(8-(o-trifluoromethoxyphenoxy)octyl)-N″-(4-pyridyl) guanidine]: 5.6 nM, 9.3 nM and 9.6 nM.
For `N#C/N=C(\NCCCCCCOc1ccc(Br)cc1OC(F)(F)F)Nc1ccncc1` [Example 7, N-cyano-N′-(6-(2-trifluoromethoxy-4-bromophenoxy)hexyl)-N″-(4-pyridyl)guanidine], the IC50 is 4.7 nM in experiment [4]; 6.3 nM in experiment [12]; 6.9 nM in [10]; 5.1 nM in experiment [2]; 5.8 nM in experiment [11].
Regarding `CC(C)(C)c1ccc(OC(F)F)c(OCCCCCCN/C(=N\C#N)Nc2ccncc2)c1` [Example 10, N-cyano-N′-(6-(2-difluoromethoxy-5-tert-butylphenoxy)hexyl)-N″-(4-pyridyl)guanidine], the IC50 was 2.4 nM in experiment [4], 13 nM in [10] and 3.5 nM in experiment [11].
As for `N#C/N=C(\NCCCCCCOc1ccccc1OC(F)(F)F)Nc1ccncc1` [Example 11, N-cyano-N′-(6-(o-trifluoromethoxyphenoxy)hexyl)-N″-(4-pyridyl) guanidine], the IC50 worked out at 8 nM in [3]; 1.5 nM in [4]; 1 nM in experiment [12]; 1.5 nM in experiment [10]; 3 nM in experiment [5]; 5.3 nM in [6]. Besides, the IC50 in [1] is 2.1 nM; in [2], 1.6 nM; in experiment [11] it was 1.5 nM; in experiment [7], 0.2 nM; in [8], 2.3 nM; in experiment [9], 1.5 nM.
Regarding `N#C/N=C(\NCCCCCCOc1ccc(Cl)cc1OC(F)F)Nc1ccncc1` [Example 12, N-cyano-N′-(6-(2-difluoromethoxy-4-chlorophenoxy)hexyl)-N″-(4-pyridyl)guanidine], the IC50 was 2.8 nM in experiment [4]; 3.2 nM in experiment [10]; 2.3 nM in experiment [1]; 2.3 nM in experiment [2]; less than 1 nM in experiment [11].
Turning to `Cc1ccc(OC(F)F)c(OCCCCCCN/C(=N\C#N)Nc2ccncc2)c1` [Example 16, N-cyano-N′-(6-(5-methyl-2-difluoromethoxyphenoxy)hexyl)-N″-(4-pyridyl)guanidine], the IC50 in [4] is 1.3 nM; in [10], 1.3 nM; in [1] it was 0.9 nM; in experiment [2], 2.2 nM; in [11], less than 1 nM.
